The test system of the data set is CCRIS mutagenicity, Ames/micronucleus/aberration tests. Briefly: CCRIS mutagenicity studies.
Setting [1] is: Test System: AMES SALMONELLA TYPHIMURIUM, Strain/Indicator: TA98, Metabolic Activation: NONE, Method: PREINCUBATION
Where [2] appears, read: Test System: AMES SALMONELLA TYPHIMURIUM, Strain/Indicator: TA100, Metabolic Activation: NONE, Method: PREINCUBATION
The mark [3] stands for this setting: Test System: AMES SALMONELLA TYPHIMURIUM, Strain/Indicator: TA1535, Metabolic Activation: NONE, Method: PREINCUBATION
Where [4] appears, read: Test System: AMES SALMONELLA TYPHIMURIUM, Strain/Indicator: TA1537, Metabolic Activation: NONE, Method: PREINCUBATION
The mark [5] stands for this setting: Test System: AMES SALMONELLA TYPHIMURIUM, Strain/Indicator: TA98, Metabolic Activation: NONE, Method: STANDARD PLATE.
The mark [6] stands for this setting: Test System: AMES SALMONELLA TYPHIMURIUM, Strain/Indicator: TA98, Metabolic Activation: RAT, LIVER, S-9, AROCLOR 1254, Method: STANDARD PLATE.

Active and inactive are the calls of the source. No rule for the calls is given here.

For `CC(=O)c1cc(NC(=O)NC(C)(C)C)ccc1OCC(O)CNC(C)(C)C` (stereo unspecified), the mutagenic call is “inactive; negative” under setting [1]; “inactive; negative” (Test System: AMES SALMONELLA TYPHIMURIUM, Strain/Indicator: TA98, Metabolic Activation: RAT, LIVER, S-9, PHENOBARBITAL AND 5,6-BENZOFLAVONE (10 OR 50 µL/PLATE), Method: PREINCUBATION); “inactive; negative” under setting [2]; “inactive; negative” (Test System: AMES SALMONELLA TYPHIMURIUM, Strain/Indicator: TA100, Metabolic Activation: RAT, LIVER, S-9, PHENOBARBITAL AND 5,6-BENZOFLAVONE (10 OR 50 µL/PLATE), Method: PREINCUBATION); “inactive; negative” under setting [3]; “inactive; negative” (Test System: AMES SALMONELLA TYPHIMURIUM, Strain/Indicator: TA1535, Metabolic Activation: RAT, LIVER, S-9, PHENOBARBITAL AND 5,6-BENZOFLAVONE (10 OR 50 µL/PLATE), Method: PREINCUBATION). The mutagenic call was “inactive; negative” under setting [4]; “inactive; negative” (Test System: AMES SALMONELLA TYPHIMURIUM, Strain/Indicator: TA1537, Metabolic Activation: RAT, LIVER, S-9, PHENOBARBITAL AND 5,6-BENZOFLAVONE (10 OR 50 µL/PLATE), Method: PREINCUBATION); “inactive; negative” (Test System: E. COLI, Strain/Indicator: WP2 UVRA, Metabolic Activation: NONE, Method: PREINCUBATION); “inactive; negative” (Test System: E. COLI, Strain/Indicator: WP2 UVRA, Metabolic Activation: RAT, LIVER, S-9, PHENOBARBITAL AND 5,6-BENZOFLAVONE (10 OR 50 µL/PLATE), Method: PREINCUBATION).

In the case of `Nc1c(C(=O)O)cc([N+](=O)[O-])c2c1C(=O)c1ccccc1C2=O`, the mutagenic call was “active; positive” under setting [5]; “active; positive” under setting [6]; “active; positive” (Test System: AMES SALMONELLA TYPHIMURIUM, Strain/Indicator: TA100, Metabolic Activation: NONE, Method: STANDARD PLATE); “active; positive” (Test System: AMES SALMONELLA TYPHIMURIUM, Strain/Indicator: TA100, Metabolic Activation: RAT, LIVER, S-9, AROCLOR 1254, Method: STANDARD PLATE); “inactive; negative” (Test System: AMES SALMONELLA TYPHIMURIUM, Strain/Indicator: TA1535, Metabolic Activation: NONE, Method: STANDARD PLATE); “active; positive” (Test System: AMES SALMONELLA TYPHIMURIUM, Strain/Indicator: TA1537, Metabolic Activation: NONE, Method: STANDARD PLATE). Further, the mutagenic call (Test System: AMES SALMONELLA TYPHIMURIUM, Strain/Indicator: TA1537, Metabolic Activation: RAT, LIVER, S-9, AROCLOR 1254, Method: STANDARD PLATE) is “active; positive”; the mutagenic call (Test System: AMES SALMONELLA TYPHIMURIUM, Strain/Indicator: TA1538, Metabolic Activation: NONE, Method: STANDARD PLATE) is “active; positive”; the mutagenic call (Test System: AMES SALMONELLA TYPHIMURIUM, Strain/Indicator: TA1538, Metabolic Activation: RAT, LIVER, S-9, AROCLOR 1254, Method: STANDARD PLATE) is “active; positive”; the mutagenic call (Test System: AMES SALMONELLA TYPHIMURIUM, Strain/Indicator: TA1978, Metabolic Activation: NONE, Method: STANDARD PLATE) is “active; positive”.

In the case of `Nc1ccc([N+](=O)[O-])cc1O`, the mutagenic call reads like this: (End Point: IN VITRO CHROMOSOMAL ABERRATIONS, Test System: CHO CELLS, Metabolic Activation: NONE) “active; positive; precipitation occurred at 100.5 and 149.9 ug/ml”; (End Point: IN VITRO CHROMOSOMAL ABERRATIONS, Test System: CHO CELLS, Metabolic Activation: RAT, LIVER, S-9, AROCLOR 1254) “active; positive; precipitation occurred at both doses”; (Test System: AMES SALMONELLA TYPHIMURIUM, Strain/Indicator: TA98, Metabolic Activation: HAMSTER, LIVER, S-9, AROCLOR 1254 (10%), Method: PREINCUBATION) “active; positive”; (Test System: AMES SALMONELLA TYPHIMURIUM, Strain/Indicator: TA98, Metabolic Activation: HAMSTER, LIVER, S-9, AROCLOR 1254, Method: PREINCUBATION) “active; positive”; (Test System: AMES SALMONELLA TYPHIMURIUM, Strain/Indicator: TA98, Metabolic Activation: NONE, Method: FLUCTUATION (MICROTITER)) “active; positive”; under setting [1], “active; positive”. Also, the mutagenic call is, setting by setting: under setting [5], “active; positive”; (Test System: AMES SALMONELLA TYPHIMURIUM, Strain/Indicator: TA98, Metabolic Activation: RAT, LIVER, S-9, AROCLOR 1254 (10%), Method: PREINCUBATION) “active; positive”; (Test System: AMES SALMONELLA TYPHIMURIUM, Strain/Indicator: TA98, Metabolic Activation: RAT, LIVER, S-9, AROCLOR 1254, Method: PREINCUBATION) “active; positive”; under setting [6], “inactive; negative”; (Test System: AMES SALMONELLA TYPHIMURIUM, Strain/Indicator: TA100, Metabolic Activation: HAMSTER, LIVER, S-9, AROCLOR 1254 (10%), Method: PREINCUBATION) “inactive; negative”; under setting [2], “inactive; negative”. In addition, the mutagenic call reads like this: (Test System: AMES SALMONELLA TYPHIMURIUM, Strain/Indicator: TA100, Metabolic Activation: RAT, LIVER, S-9, AROCLOR 1254 (10%), Method: PREINCUBATION) “inactive; negative”; (Test System: AMES SALMONELLA TYPHIMURIUM, Strain/Indicator: TA1535, Metabolic Activation: HAMSTER, LIVER, S-9, AROCLOR 1254 (10%), Method: PREINCUBATION) “inactive; negative”; (Test System: AMES SALMONELLA TYPHIMURIUM, Strain/Indicator: TA1535, Metabolic Activation: HAMSTER, LIVER, S-9, AROCLOR 1254, Method: PREINCUBATION) “inactive; negative”; under setting [3], “inactive; negative”; (Test System: AMES SALMONELLA TYPHIMURIUM, Strain/Indicator: TA1535, Metabolic Activation: RAT, LIVER, S-9, AROCLOR 1254 (10%), Method: PREINCUBATION) “inactive; negative”; (Test System: AMES SALMONELLA TYPHIMURIUM, Strain/Indicator: TA1535, Metabolic Activation: RAT, LIVER, S-9, AROCLOR 1254, Method: PREINCUBATION) “inactive; negative”. The mutagenic call runs as follows: (Test System: AMES SALMONELLA TYPHIMURIUM, Strain/Indicator: TA1537, Metabolic Activation: HAMSTER, LIVER, S-9, AROCLOR 1254 (10%), Method: PREINCUBATION) “active; positive”; (Test System: AMES SALMONELLA TYPHIMURIUM, Strain/Indicator: TA1537, Metabolic Activation: HAMSTER, LIVER, S-9, AROCLOR 1254, Method: PREINCUBATION) “active; positive”; (Test System: AMES SALMONELLA TYPHIMURIUM, Strain/Indicator: TA1537, Metabolic Activation: NONE, Method: FLUCTUATION (MICROTITER)) “inactive; negative”; under setting [4], “active; positive”; (Test System: AMES SALMONELLA TYPHIMURIUM, Strain/Indicator: TA1537, Metabolic Activation: RAT, LIVER, S-9, AROCLOR 1254 (10%), Method: PREINCUBATION) “active; positive”; (Test System: AMES SALMONELLA TYPHIMURIUM, Strain/Indicator: TA1537, Metabolic Activation: RAT, LIVER, S-9, AROCLOR 1254, Method: PREINCUBATION) “active; positive”. Besides, the mutagenic call is “inactive; negative” (Test System: AMES SALMONELLA TYPHIMURIUM, Strain/Indicator: TA7001, Metabolic Activation: NONE, Method: FLUCTUATION (MICROTITER)); “inactive; negative” (Test System: AMES SALMONELLA TYPHIMURIUM, Strain/Indicator: TA7002, Metabolic Activation: NONE, Method: FLUCTUATION (MICROTITER)); “inactive; negative” (Test System: AMES SALMONELLA TYPHIMURIUM, Strain/Indicator: TA7003, Metabolic Activation: NONE, Method: FLUCTUATION (MICROTITER)); “inactive; negative” (Test System: AMES SALMONELLA TYPHIMURIUM, Strain/Indicator: TA7004, Metabolic Activation: NONE, Method: FLUCTUATION (MICROTITER)); “inactive; negative” (Test System: AMES SALMONELLA TYPHIMURIUM, Strain/Indicator: TA7005, Metabolic Activation: NONE, Method: FLUCTUATION (MICROTITER)); “inactive; negative” (Test System: AMES SALMONELLA TYPHIMURIUM, Strain/Indicator: TA7006, Metabolic Activation: NONE, Method: FLUCTUATION (MICROTITER)). Further, the mutagenic call (Test System: MOUSE LYMPHOMA, Strain/Indicator: L5178Y (TK+/TK-), Metabolic Activation: NONE, Method: SUSPENSION/PLATE) is “active; positive”.

The values above are taken from PubChem BioAssay AID1259407 (Chemical Carcinogenesis Research Information System (CCRIS), 2018).
